In article PMC5244253, “Phloretin Attenuates Listeria monocytogenes Virulence Both In vitro and In vivo by Simultaneously Targeting Listeriolysin O and Sortase A” (Frontiers in Cellular and Infection Microbiology, 2017):
≈ marks a conversion by molar mass, not a printed value. Read-outs that look alike come from different tables or passages of the source.

Legend:
L. monocytogenes [1] = conditions: cited from earlier work
[2] = Toxicity of phloretin in healthy (uninfected) mice; format: in vivo, BALB/c mice
Description: (§1) Overnight cultures of L. monocytogenes were enlarged by culturing into fresh TSB (1:100) at 37°C with shaking until the OD at 600 nm reached 1.0, at which point they were harvested. The cell pellets were washed and suspended in normal saline. To establish an infection model, 200 μL prepared bacterial suspension (1 × 10^8 CFU/ml) was intraperitoneally inoculated into BALB/c mice. The infected mice in the treatment group were subcutaneously administered 150 mg/kg of phloretin 2 h after infection and again at 8-h intervals. The infected mice in the […] group were injected with an equal volume of dimethyl sulfoxide (DMSO) at the same time points. Finally, a group of healthy mice received only phloretin to examine the toxicity of the drug. Each group had 10 mice, and the therapeutic trial lasted for 96 h; survival statistics were collected throughout this period.
(§2) For histopathologic analysis, the mice were euthanized with anesthesia following cervical dislocation at 48 h post-infection. Liver and spleen tissues were removed, fixed with formalin, embedded in paraffin, stained with hematoxylin and eosin and visualized by light microscopy. To analyze the bacterial burden in tissue, the liver and spleen tissues collected from the sacrificed mice were weighed, lysed in 2% Triton X-100 and inoculated onto TSB agar plates at 37°C overnight.

WT-SrtA [3] = target: T1, WT-SrtA (Listeria monocytogenes serovar 1/2a, UniProt Q8Y8H5); test: Sortase A enzyme activity inhibition assay (WT-SrtA)
T1 sequence (Q8Y8H5 71-222): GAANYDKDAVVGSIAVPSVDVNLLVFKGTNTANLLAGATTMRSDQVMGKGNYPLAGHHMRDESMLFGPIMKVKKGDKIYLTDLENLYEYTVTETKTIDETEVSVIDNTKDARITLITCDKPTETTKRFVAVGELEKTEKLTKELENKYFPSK
Description: Following another incubation at 37°C for 1 h, the fluorescence intensity of each sample was determined at emission and excitation wavelengths of 350 and 520 nm, respectively, in a black 96-well plate.

listeriolysin O (LLO) = target: T2, listeriolysin O (LLO) (Listeria monocytogenes serovar 1/2a, UniProt P13128); test: Hemolysis assay of L. monocytogenes culture supernatants; format: cell-based
T2 construct: endogenous in cells; host or cells: L. monocytogenes EGDe wild-type strain BUG 1600
T2 sequence (P13128 25-529): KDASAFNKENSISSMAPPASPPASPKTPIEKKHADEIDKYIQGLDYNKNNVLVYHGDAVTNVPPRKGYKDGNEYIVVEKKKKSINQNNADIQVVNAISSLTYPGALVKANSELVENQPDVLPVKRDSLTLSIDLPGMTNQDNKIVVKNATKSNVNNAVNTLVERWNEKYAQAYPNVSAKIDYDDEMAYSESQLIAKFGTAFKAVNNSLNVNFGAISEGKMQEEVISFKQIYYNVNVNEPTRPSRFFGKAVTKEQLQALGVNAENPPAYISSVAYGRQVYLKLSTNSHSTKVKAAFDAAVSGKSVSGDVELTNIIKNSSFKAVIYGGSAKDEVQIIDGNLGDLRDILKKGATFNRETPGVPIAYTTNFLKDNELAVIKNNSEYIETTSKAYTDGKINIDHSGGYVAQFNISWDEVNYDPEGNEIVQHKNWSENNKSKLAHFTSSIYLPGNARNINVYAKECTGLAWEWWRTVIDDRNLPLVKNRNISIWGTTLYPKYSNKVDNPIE
Description: Overnight cultures of EGDe were enlarged and cultured into fresh TSB (1:100) at 37°C for 2 h with shaking and then treated with various concentrations of phloretin until the optical density (OD) at 600 nm reached 2.0, at which point they were harvested (8000 g, 5 min). The bacterial culture supernatants were incubated with rabbit erythrocytes (final concentration of 2.5%) in PBS (35 mM Na3PO4, 125 mM NaCl, 0.5 mg/mL BSA, pH 5.5) at 37°C for 30 min, and then the hemolytic activity of each sample was determined by measuring the release of hemoglobin in supernatants at an OD of 543 nm after centrifugation (8000 g, 1 min).
To examine the direct effect of phloretin on hemolysis induced by bacterial culture supernatants, the hemolytic activities of bacterial culture supernatants pre-incubated with various concentrations of phloretin were determined as described above.

LLO = format: cell-based, Listeria monocytogenes
V129A = target: T3, V129A (Listeria monocytogenes serovar 1/2a, UniProt Q8Y8H5, V201A); test: Fluorescence-quenching binding constant (V129A); conditions: fluorescence-quenching spectroscopy, read-out: binding constant KA (converted)
T3 construct: GST (inferred from vector pGEX-6P-1) (N); made in house
T3 sequence (Q8Y8H5 71-222 V201A): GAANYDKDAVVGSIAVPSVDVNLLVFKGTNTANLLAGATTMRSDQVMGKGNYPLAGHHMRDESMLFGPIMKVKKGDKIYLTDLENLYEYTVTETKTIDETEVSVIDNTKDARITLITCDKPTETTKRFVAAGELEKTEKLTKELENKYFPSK
Description: (§3) The binding constant (KA) for phloretin with SrtA was measured using a fluorescence-quenching method. A 280-nm excitation wavelength with a 5-nm band-pass and a 345-nm emission wavelength with a 10-nm band-pass were used for the measurements. The details of the protocol used to perform the measurements were as previously described (Bandyopadhyay et al., [2002]; Jurasekova et al., [2009]).

WT-SrtA [4] = target: T1, WT-SrtA; test: Fluorescence-quenching binding constant (WT-SrtA); set-up: GST (inferred from vector pGEX-6P-1) (N); made in house
Description: as §3

hly = test: Agar assay and β-galactosidase activity analysis (phly-lacZ); format: cell-based, Listeria monocytogenes; conditions: phly-lacZ-containing bacteria; agar assay 0–116.68 μM and β-galactosidase activity
Description: The phly-lacZ plasmid was a kind gift from Dr. Birgitte Kallipolitis (University of Southern Denmark) and was electroporated into EGDe cells to perform an agar assay as described previously (Kastbjerg et al., [2010]). A 25-ml aliquot of TSB agar was melted at 44°C and supplemented with X-gal (150 μg/ml) and kanamycin (50 μg/ml) before being thoroughly mixed with 1 ml of an overnight culture of bacteria containing the phly-lacZ plasmid. Nine wells were made per plate following desiccation in Class II biosafety cabinet at room temperature. A 30-μl aliquot of phloretin or benzalkonium bromide at varying concentrations was added to each well. The plates were incubated for 48 h at 37°C. The β-galactosidase activities of the phly-lacZ-containing bacteria treated with various concentrations of phloretin were quantitatively determined as previously described (Larsen et al., [2006]).

Caco-2 cells = test: Cytotoxicity of phloretin in Caco-2 cells; format: cell-based; conditions: phloretin treatment alone
L. monocytogenes [5] = test: Mouse model of L. monocytogenes infection; format: in vivo, BALB/c mice
Description: Female 6- to 8-week-old BALB/c mice were purchased from Liao Ning Chang Sheng Biotechnology Co., LTD. The mice used for the experiments were housed and handled in accordance with the guidelines established by the United States National Institutes of Health. These studies were reviewed and approved by the Institutional Animal Care and Use Committee of Jilin University.
as §1, §2

[6] = tested on: L. monocytogenes invasion into Caco-2 cells; test: L. monocytogenes invasion into Caco-2 cells (CFU assay, immunostaining); format: cell-based, Listeria monocytogenes; conditions: EGDeΔsrtA co-treated or pre-treated with phloretin; Caco-2, 1 h
Description: (§4) The Caco-2 cell line was maintained in RPMI-1640 medium with 10% fetal bovine serum, non-essential amino acids and antibiotics in a humidified atmosphere at 37°C with 5% CO2. The cells were routinely adjusted to a concentration of 3 × 10^5 cells per ml, seeded into 24-well plastic culture microplates (3 × 10^5 per microplate) and cultured for 48 h for immunostaining and the determination of intracellular bacterial growth. To assay LDH release, cell monolayers were incubated overnight in culture medium without antibiotics in 96-well plates (2 × 10^4 cells per well).
Caco-2 cells were co-cultured with L. monocytogenes at an MOI of 100. […] In each case, gentamicin (20 μg/ml) was added 30 min after bacterial internalization.
A 0.3% concentration of Triton X-100 was added to permeabilize the cells for 4 min prior to stain the total bacteria (intracellular + extracellular) with a rabbit L. monocytogenes-specific antibody (Abcam) and an Alexa Fluor 488-conjugated chicken anti-rabbit antibody (Molecular Probes).

T90A = target: T4, T90A (Listeria monocytogenes serovar 1/2a, UniProt Q8Y8H5, T162A); test: Fluorescence-quenching binding constant (T90A); conditions: fluorescence-quenching spectroscopy, read-out: binding constant KA (converted)
T4 construct: GST (inferred from vector pGEX-6P-1) (N); made in house
T4 sequence (Q8Y8H5 71-222 T162A): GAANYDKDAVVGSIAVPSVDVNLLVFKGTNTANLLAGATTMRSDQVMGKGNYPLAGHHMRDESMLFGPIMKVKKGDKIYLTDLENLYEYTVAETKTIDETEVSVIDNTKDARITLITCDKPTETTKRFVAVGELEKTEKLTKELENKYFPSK
Description: as §3

[7] = tested on: L. monocytogenes-induced cytotoxicity in Caco-2 cells; test: LDH release assay of infected Caco-2 cells; format: cell-based, Listeria monocytogenes; conditions: all phloretin-treated groups vs infected untreated control; 5 h, MOI 100
Description: as §4
Caco-2 cells grown in 96-well microplates were infected with L. monocytogenes pre-exposed or not to phloretin at a multiplicity of infection (MOI) of 100. Following infections with discriminatory concentrations of phloretin for 5 h, the LDH released into the supernatants of the co-culture system was determined using a Cytotoxicity Detection Kit (LDH; Roche, Basel, Switzerland) as previously described (Wang et al., [2015a]).

I103A = target: T5, I103A (Listeria monocytogenes serovar 1/2a, UniProt Q8Y8H5, I175A); test: Fluorescence-quenching binding constant (I103A); conditions: fluorescence-quenching spectroscopy, read-out: binding constant KA (converted)
T5 construct: GST (inferred from vector pGEX-6P-1) (N); made in house
T5 sequence (Q8Y8H5 71-222 I175A): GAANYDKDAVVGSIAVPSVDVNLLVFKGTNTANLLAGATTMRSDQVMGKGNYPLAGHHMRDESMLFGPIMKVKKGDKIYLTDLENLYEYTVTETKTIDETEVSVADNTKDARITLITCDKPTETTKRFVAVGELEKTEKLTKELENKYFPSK
Description: as §3

L. monocytogenes EGDe = test: Susceptibility assays (MIC, growth curve)

In the case of `O=C(/C=C/c1ccccc1)c1ccccc1` [chalcone], the “protection against L. monocytogenes infection in vitro and in vivo” value (L. monocytogenes [1]; inhibitor of SrtA, ref Li et al., 2016) is listed as “robust protection”.
For `O=C(CCc1ccc(O)cc1)c1c(O)cc(O)cc1O` [phloretin], the “survival of mice treated only with phloretin, not infected” value ([2]; 150 mg/kg s.c. at 8-h intervals, 96 h) was “all survived”, the “pathological changes in uninfected mice treated with phloretin” value ([2]; liver and spleen) was “no pathological changes were observed” and the IC50 (WT-SrtA [3]) was 37.2 µM. For the same compound, the “hemolytic activities of culture supernatants of L. monocytogenes EGDe cells after co-culture” value (listeriolysin O (LLO); co-culture with phloretin 7.3–58.34 μM, rabbit erythrocytes) was “dose-dependently decreased”, the “hemolytic activities of bacterial culture supernatants after direct pre-incubation” value (listeriolysin O (LLO); supernatants pre-incubated with various concentrations of phloretin) was “did not affect the hemolytic activities” and the “LLO levels in bacterial culture supernatants and cell pellets” value (LLO) was “reduced in a concentration-dependent manner”. The Kd (V129A) was 20.1 µM, the Kd (WT-SrtA [4]) was 12.6 µM and the transcription of hly (hly) was “did not affect the transcription of hly”. The “cytotoxicity in Caco-2 cells” value (Caco-2 cells) was “did not significantly induce cytotoxicity”, the “infected mice that had died by 96 h post-infection” value (L. monocytogenes [5]; 2 × 10^7 CFUs i.p. per mouse, phloretin 150 mg/kg s.c. 2 h after infection and at 8-h intervals) was 25% and the “gross pathological changes in liver and spleen of infected mice” value (L. monocytogenes [5]; 48 h post-infection) was “clearly ameliorated”. The “histopathology (inflammatory lesions) in infected mice” value (L. monocytogenes [5]; 48 h post-infection, liver and spleen sections) was “only minor inflammatory lesions”, the “numbers of viable bacteria colonized in the livers and spleens” value (L. monocytogenes [5]; 48 h post-infection, vs infected mice treated with DMSO) was “significantly lower” and the “survival rate vs control group treated with DMSO” value (L. monocytogenes [5]; phloretin 150 mg/kg s.c., 96 h) was “significantly higher survival rate”. The “invasion of EGDeΔsrtA (CFU assay)” value [6] was “no difference was observed”, the Kd (T90A) was 17.5 µM and the “LDH release of EGDe-infected Caco-2 cells” value [7] was “decreased LDH release”. The Kd (I103A) was 17.2 µM, the MIC (L. monocytogenes EGDe; Listeria monocytogenes) was 933 µM (≈ 256 µg/mL) and the “growth of L. monocytogenes” value (L. monocytogenes EGDe; at the concentrations required for inhibition of LLO expression and SrtA catalytic activity, OD 600 nm) was “not apparently affected”.
In the case of `O=c1c(O)c(-c2ccc(O)c(O)c2)oc2cc(O)ccc12` [fisetin], the “protection against L. monocytogenes infection in vitro and in vivo” value (L. monocytogenes [1]; inhibitor of LLO, ref Wang et al., 2015a) is listed as “robust protection”.
